For 22 compounds, IC50 results are on record in patent US20170022171A1, “2,5-DISUBSTITUTED CYCLOPENTANECARBOXYLIC ACIDS AND THEIR USE” (Bayer Pharma Aktiengesellschaft, priority 2014, published 2017).

A word on the IC50: it is the concentration needed to halve the response being measured. The low end stands for greater potency in that assay, the high end for weaker potency in that assay.

The target in this assay is T1, human macrophage elastase (HME/hMMP-12) (Homo sapiens, UniProt P39900).
T1 construct: 0.5 nM HME; purchased R&D Systems 917-MP
T1 sequence (P39900 106-470): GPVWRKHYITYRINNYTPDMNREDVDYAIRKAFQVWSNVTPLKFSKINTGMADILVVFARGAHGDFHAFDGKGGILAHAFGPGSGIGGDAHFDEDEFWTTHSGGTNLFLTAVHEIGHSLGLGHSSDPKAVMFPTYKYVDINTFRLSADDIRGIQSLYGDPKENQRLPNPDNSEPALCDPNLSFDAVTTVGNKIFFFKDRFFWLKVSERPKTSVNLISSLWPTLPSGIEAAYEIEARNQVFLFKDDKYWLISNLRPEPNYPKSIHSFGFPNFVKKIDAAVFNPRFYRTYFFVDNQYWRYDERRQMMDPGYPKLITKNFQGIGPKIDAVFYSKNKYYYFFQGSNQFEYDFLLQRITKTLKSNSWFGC
Nature of the assay: In vitro HME inhibition test (standard or high-sensitivity). Conditions: in some cases mean values. In kind it is biochemical. The procedure: The potency of the compounds according to the invention with respect to HME (MMP-12) is determined in an in vitro inhibition test. The HME-mediated amidolytic cleavage of a suitable peptide substrate leads to an increase in fluorescent light therein. The signal intensity of the fluorescent light is directly proportional to the enzyme activity. The active concentration of a test compound at which half the enzyme is inhibited (50% signal intensity of the fluorescent light) is reported as the IC50 value.
In a 384 hole microtiter plate, in a total test volume of 41 the test buffer (0.1 M HEPES pH 7.4, 0.15 M NaCl, 0.03 M CaCl2, 0.004 mM ZnCl2, 0.02 M EDTA, 0.005% Brij®), the enzyme (0.5 nM HME; from R&D Systems, 917-MP, autocatalytic activation according to the manufacturer's instructions) and the intramolecularly quenched substrate [5 μM Mca-Pro-Leu-Gly-Leu-Glu-Glu-Ala-Dap(Dnp)-NH2; Bachem, M-2670] are incubated in the absence and presence of the test substance (as a solution in DMSO) at 37° C. for two hours. The fluorescence intensity of the test mixtures is measured (excitation […], emission 393 nm). The IC50 values are ascertained by plotting the fluorescent light intensity against the active ingredient concentration.
In this case, an enzyme concentration ten times lower is used (final concentration, for example, 0.05 nM) in order to achieve an elevated test sensitivity. The incubation period chosen for the test is correspondingly longer (for example 16 hours).
As for `Cc1cccc(COc2ccc(C(=O)[C@@H]3CC[C@H](Cn4nnc5ccc(C(F)(F)F)cc5c4=O)[C@H]3C(=O)O)cc2)c1` (single isomer, unassigned) [Example 17, (−)-(1RS,2RS,5SR)-2-{4-[(3-Methylbenzyl)oxy]benzoyl}-5-{[4-oxo-6-(trifluoromethyl)-1,2,3-benzotriazin-3(4H)-yl]methyl}cyclopentanecarboxylic acid], the IC50 was found to be 48 nM. This counts as double-digit nanomolar. Under `O=C(O)[C@@H]1[C@@H](Cn2nnc3ccc(C(F)(F)F)cc3c2=O)CC[C@H]1C(=O)c1ccc(SCc2cccc(Cl)c2)cc1` (single isomer, unassigned) [Example 78, (−)-(1RS,2RS,5SR)-2-{4-[(3-Chlorobenzyl)sulphanyl]benzoyl}-5-{[4-oxo-6-(trifluoromethyl)-1,2,3-benzotriazin-3(4H)-yl]methyl}cyclopentanecarboxylic acid] stands 8.8 nM. In the case of `CCCCOc1ccc(C(=O)[C@H]2CC[C@@H](Cn3nnc4ccc(C(F)(F)F)cc4c3=O)[C@@H]2C(=O)O)cc1` (racemic) [Example 66, (+/−)-(1RS,2RS,5SR)-2-(4-Butoxybenzoyl)-5-{[4-oxo-6-(trifluoromethyl)-1,2,3-benzotriazin-3 (4H)-yl]methyl}cyclopentanecarboxylic acid], 0.043 nM corresponded to half-maximal inhibition (IC50). Under `O=C(O)[C@@H]1[C@@H](Cn2nnc3ccc(C(F)(F)F)cc3c2=O)CC[C@H]1C(=O)c1ccc(OCc2cccc(C(F)(F)F)c2)cc1` (single isomer, unassigned) [Example 20, (−)-(1RS,2SR,5RS)-2-{[4-Oxo-6-(trifluoromethyl)-1,2,3-benzotriazin-3(4H)-yl]methyl}-5-(4-{[3-(trifluoromethyl)benzyl]oxy}benzoyl)cyclopentanecarboxylic acid] stands 4.6 nM; under `COc1cccc(COc2ccc(C(=O)[C@@H]3CC[C@H](Cn4nnc5ccc(C)cc5c4=O)[C@H]3C(=O)O)cc2)c1` (single isomer, unassigned) [Example 108, (−)-(1RS,2RS,5SR)-2-{4-[(3-Methoxybenzyl)oxy]benzoyl}-5-[(6-methyl-4-oxo-1,2,3-benzotriazin-3(4H)-yl)methyl]cyclopentanecarboxylic acid], 470 nM.

As to `CCCCCCOc1ccc(C(=O)[C@H]2CC[C@@H](Cn3nnc4ccc(C(F)(F)F)cc4c3=O)[C@@H]2C(=O)O)cc1` (racemic) [Example 57, (+/−)-(1RS,2RS,5SR)-2-[4-(Hexyloxy)benzoyl]-5-{[4-oxo-6-(trifluoromethyl)-1,2,3-benzotriazin-3(4H)-yl]methyl}cyclopentanecarboxylic acid], inhibition was half-maximal at 0.028 nM (IC50). Under `O=C(O)[C@@H]1[C@@H](Cn2nnc3ccc(C(F)(F)F)cc3c2=O)CC[C@H]1C(=O)c1ccc(OCc2cccc(N3CCOC3=O)c2)cc1` (single isomer, unassigned) [Example 34, (−)-(1RS,2RS,5SR)-2-(4-{[3-(2-Oxo-1,3-oxazolidin-3-yl)benzyl]oxy}benzoyl)-5-{[4-oxo-6-(trifluoromethyl)-1,2,3-benzotriazin-3(4H)-yl]methyl}cyclopentanecarboxylic acid] stands 160 nM. The figure for `CCCCOc1ccc(C(=O)[C@H]2CC[C@@H](Cn3nnc4ccccc4c3=O)[C@@H]2C(=O)O)cc1` (racemic) [Example 10, (+/−)-(1RS,2RS,5SR)-2-(4-Butoxybenzoyl)-5-[(4-oxo-1,2,3-benzotriazin-3 (4H)-yl)methyl]cyclopentanecarboxylic acid] is 0.36 nM.

The compound `O=C(O)[C@@H]1[C@@H](Cn2nnc3ccc(C(F)(F)F)cc3c2=O)CC[C@H]1C(=O)c1ccc(SCc2ccccc2)cc1` (single isomer, unassigned) [Example 74, (−)-(1RS,2RS,5SR)-2-[4-(Benzylsulphanyl)benzoyl]-5-{[4-oxo-6-(trifluoromethyl)-1,2,3-benzotriazin-3(4H)-yl]methyl}cyclopentanecarboxylic acid] returned an IC50 of 160 nM. Under `CC(C)CCOc1ccc(C(=O)[C@@H]2CC[C@H](Cn3nnc4ccc(C(F)(F)F)cc4c3=O)[C@H]2C(=O)O)cc1` (single isomer, unassigned) [Example 62, (−)-(1RS,2RS,5SR)-2-[4-(3-Methylbutoxy)benzoyl]-5-{[4-oxo-6-(trifluoromethyl)-1,2,3-benzotriazin-3(4H)-yl]methyl}cyclopentanecarboxylic acid] stands 4.7 nM; under `CCCCCSc1ccc(C(=O)[C@@H]2CC[C@H](Cn3nnc4ccc(C(F)(F)F)cc4c3=O)[C@H]2C(=O)O)cc1` (single isomer, unassigned) [Example 89, (+)-(1RS,2SR,5RS)-2-{[4-Oxo-6-(trifluoromethyl)-1,2,3-benzotriazin-3(4H)-yl]methyl}-5-[4-(pentylsulphanyl)benzoyl]cyclopentanecarboxylic acid], 0.045 nM; under `Cc1ccc2nnn(C[C@@H]3CC[C@H](C(=O)c4ccc(OCc5ccc(F)cc5)cc4)[C@H]3C(=O)O)c(=O)c2c1` (racemic) [Example 94, (+/−)-(1RS,2RS,5SR)-2-{4-[(4-Fluorobenzyl)oxy]benzoyl}-5-[(6-methyl-4-oxo-1,2,3-benzotriazin-3(4H)-yl)methyl]cyclopentanecarboxylic acid], 0.055 nM.

Take “(−)-(1RS,2RS,5SR)-2-{4-[Cyclohexyl)methyl)sulphanyl]benzoyl}-5-{[4-oxo-6-(trifluoromethyl)-1,2,3-benzotriazin-3(4H)-yl]methyl}cyclopentanecarboxylic acid [Example 87]”: half-maximal inhibition (IC50) required 8.3 nM. In turn, `O=C(O)[C@H]1[C@H](Cn2nnc3ccc(C(F)(F)F)cc3c2=O)CC[C@@H]1C(=O)c1ccc(OCCC2CCCCC2)cc1` (racemic) [Example 50, (+/−)-(1RS,2RS,5SR)-2-[4-(2-Cyclohexylethoxy)benzoyl]-5-{[4-oxo-6-(trifluoromethyl)-1,2,3-benzotriazin-3(4H)-yl]methyl}cyclopentanecarboxylic acid] displayed an IC50 of 0.036 nM. This IC50 is about 230-fold lower than that of the compound before. Under `CCCOc1ccc(C(=O)[C@@H]2CC[C@H](Cn3nnc4ccc(C(F)(F)F)cc4c3=O)[C@H]2C(=O)O)cc1` (single isomer, unassigned) [Example 70, (+)-(1RS,2SR,5RS)-2-{[4-Oxo-6-(trifluoromethyl)-1,2,3-benzotriazin-3(4H)-yl]methyl}-5-(4-propoxybenzoyl)cyclopentanecarboxylic acid] stands 0.031 nM; under `Cc1ccc2nnn(C[C@@H]3CC[C@H](C(=O)c4ccc(OCC5CCCCC5)cc4)[C@H]3C(=O)O)c(=O)c2c1` (racemic) [Example 116, (+/−)-(1RS,2RS,5SR)-2-[4-(Cyclohexylmethoxy)benzoyl]-5-[(6-methyl-4-oxo-1,2,3-benzotriazin-3(4H)-yl)methyl]cyclopentanecarboxylic acid], 0.093 nM; under `O=C(O)[C@@H]1[C@@H](Cn2nnc3ccc(C(F)(F)F)cc3c2=O)CC[C@H]1C(=O)c1ccc(OCCc2ccccc2)cc1` (single isomer, unassigned) [Example 38, (−)-(1RS,2SR,5RS)-2-{[4-Oxo-6-(trifluoromethyl)-1,2,3-benzotriazin-3(4H)-yl]methyl}-5-[4-(2-phenylethoxy)benzoyl]cyclopentanecarboxylic acid], 350 nM. The figure for `Cc1ccc2nnn(C[C@H]3CC[C@@H](C(=O)c4ccc(OCCc5ccccc5)cc4)[C@@H]3C(=O)O)c(=O)c2c1` (single isomer, unassigned) [Example 113, (+)-(1RS,2SR,5RS)-2-[(6-Methyl-4-oxo-1,2,3-benzotriazin-3(4H)-yl)methyl]-5-[4-(2-phenylethoxy)benzoyl]cyclopentanecarboxylic acid] is 0.24 nM; for `O=C(O)[C@H]1[C@H](Cn2nnc3ccc(C(F)(F)F)cc3c2=O)CC[C@@H]1C(=O)c1ccc(OCC2CCCC2)cc1` (racemic) [Example 43, (+/−)-(1RS,2RS,5SR)-2-[4-(Cyclopentylmethoxy)benzoyl]-5-{[4-oxo-6-(trifluoromethyl)-1,2,3-benzotriazin-3(4H)-yl]methyl}cyclopentanecarboxylic acid] it is 0.039 nM; for `Cc1ccc2nnn(C[C@H]3CC[C@@H](C(=O)c4ccc(OCc5cccc(Cl)c5)cc4)[C@@H]3C(=O)O)c(=O)c2c1` (single isomer, unassigned) [Example 105, (−)-(1RS,2RS,5SR)-2-{4-[(3-Chlorobenzyl)oxy]benzoyl}-5-[(6-methyl-4-oxo-1,2,3-benzotriazin-3(4H)-yl)methyl]cyclopentanecarboxylic acid] it is 14 nM. Under `CC(C)COc1ccc(C(=O)[C@H]2CC[C@@H](Cn3nnc4ccc(C(F)(F)F)cc4c3=O)[C@@H]2C(=O)O)cc1` (racemic) [Example 72, (+/−)-(1RS,2RS,5SR)-2-(4-Isobutoxybenzoyl)-5-{[4-oxo-6-(trifluoromethyl)-1,2,3-benzotriazin-3(4H)-yl]methyl}cyclopentanecarboxylic acid] stands 0.13 nM; under `O=C(O)[C@@H]1[C@@H](Cn2nnc3ccc(C(F)(F)F)cc3c2=O)CC[C@H]1C(=O)c1ccc(SCc2ccc(Cl)c(Cl)c2)cc1` (single isomer, unassigned) [Example 81, (−)-(1RS,2RS,5SR)-2-{4-[(3,4-Dichlorobenzyl)sulphanyl]benzoyl}-5-{[4-oxo-6-(trifluoromethyl)-1,2,3-benzotriazin-3(4H)-yl]methyl}cyclopentanecarboxylic acid], 25 nM.
